Test results as given in patent publication US4849410A, “Pseudopterosin and synthetic derivatives thereof” (The Regents of the University of California, priority 1987, dated 1989).

Key:
[1] = test system: Phorbol Myristate Acetate (PMA) Induced Topical Inflammation of the Mouse Ear; assay: Mouse Ear Anti-Inflammatory Assay (PMA, topical); format: in vivo; details: for Ear Weight Mean ± S.E.M.: PMA 1.5 ug
Method: a. Mouse Ear Anti-Inflammatory Assay
Test compound and phorbol myristate acetate (PMA) are topically applied simultaneously to the pinnae of the ears of mice. Three hours twenty minutes after application, mice are sacrificed, ears removed and standard sized bores taken. Edema (inflammation) is measured as the difference in weight between control and treated ears.
(§1) The vheicle or carrier for the compounds used in the inflammatory and analgesic assays was as follows; For the mouse ear inflammatory assay, the vehicle was acetone. Controls received 25 microliters of acetone. Test compounds were applied to the experimental animals in 25 microliter volumes. For the sperm motility and fertilized sea urchin egg assays, the compounds were dissolved in 10 microliters undenatured ethanol.

[2] = test system: Arachidonic Acid (A.A.) Induced Topical Inflammation of the Mouse Ear; assay: Arachidonic acid induced topical inflammation of the mouse ear; format: in vivo; details: A.A. 25.0 ug; 50.0 ug/ear
[3] = test system: Intraperitoneally Administered Phenylquinone; assay: Phenylquinone Assay for Analgesia (writhing); format: in vivo, mice; details: for Mean No. Responses ± S.E.M.: phenylquinone 2.0 mg/kg
Method: d. Phenylquinone Assay for Analgesia
Test compound is injected subcutaneously into mice. After 30 minutes, phenylquinone is injected intraperitoneally to cause pain as indicated by writhing.
Test compound was administered subcutaneously in sesame oil at concentrations up to 5 mg per ml depending on the test compound dosage protocol. The highest dose was 50 mg per Kg. Control groups received sesame oil subcutaneously.

[4] = test system: Fertilized Sea Urchin Egg; assay: Fertilized Sea Urchin Egg Inhibition of Cleavage Assay for Anti-proliferation; format: cell-based; details: doses as low as
Method: c. Fertilized Sea Urchin Egg Inhibition of Cleavage Assay for Anti-proliferation
Sea urchins are induced to spawn by injection of 0.5M KCl into the coelomic cavity. Test compound is added to a 1% slurry of eggs within 5 minutes following fertilization and incubated until the completion of the division in control slurry, 90-120 minutes. Inhibition is measured as the present of undivided cells in the slurry at the end of this incubation.
as §1

[5] = Toxicity of single intraperitoneal doses; format: in vivo, female B6D2F1 mice
Method: The toxicity of single intraperitoneal (ip) doses of Compound I in female B6D2F1 mice were evaluated. Doses of up to 150 mg/kg produced no lethality but signs of CNS toxicity were evident at doses greater than or equal to 77 mg/kg.

[6] = test system: M5076 reticulum cell sarcoma; assay: Activity in mice bearing ip M5076 reticulum cell sarcoma; format: in vivo, female B6D2F1 mice
Method: Compound I was also evaluated for activity against solid tumors as follows:
One-half ml of a 10 percent (v:v) brei of tumor cells prepared from solid B16 melanoma or M5076 reticulum cell sarcoma was implanted ip in female B6D2F1 mice which were randomized to treatment groups of 8 animals each. Treatment was initiated 24 hours after tumer inoculation and was continued daily for 10 days (cisplatin was administered q4Dx4 on Days 1, 5, 9 and 13). Mice were monitored daily for 60 days, and the median day of death was determined compared to three groups of untreated controls to provide percent increase in lifespan (ILS). ILS values of greater than or equal to 50 percent represent biologically significant antitumor effects. Cisplatin was curative in M5076 with 6/8 tumor-free survivors on Day 60 at the top dose level.

[7] = Side effects, subcutaneous administration to mice; format: in vivo
Source text: The following side effect of pseudopterosin A (Compound I) was observed.

[8] = test system: phenyl-p-benzoquinone (PQ) writhing; assay: Phenyl-p-benzoquinone Assay for Analgesia; format: in vivo, mouse; details: for % Inhibition (writhing): s.q.
[9] = test system: PMA induced swelling of the mouse ear; assay: Anti-Inflammatory Assay (systemic administration); format: in vivo, male Swiss Webster mice
Method: Anti-Inflammatory Assay (systemic administration)
2 ug PMA was applied in 25 ul of acetone to the inner surface of the left ear of male Swiss Webster mice (4 to 6 weeks old), the right ear is treated with acetone only. […] 200 minutes after PMA treatment, the mice were killed by cervical dislocation and both ears were cut off, punched with a #4 cork borer and weighed. The swelling induced by PMA was calculated as the increase in the weight of the left ear minus the right ear. The percent inhibition of edema was calculated as control-drug/control×100. […] ED50 values were estimated by the method of Litchfield and Wilcoxon.

[10] = test system: PMA induced swelling of the mouse ear; assay: Anti-Inflammatory Assay (topical administration); format: in vivo, mice
Method: Anti-Inflammatory (topical administration)
2 ug PMA was applied in 25 ul of acetone of the inner surface of the left ear, the right ear is treated with solvent only. […] 200 minutes after PMA treatment, the mice were killed by cervical dislocation and both ears were cut off, punched with a #4 cork borer and weighed. The swelling induced by PMA was calculated as the mean increase in the weight of the left ear minus the right ear. The pecent inhibition of edema was calculated as control-drug/control×100. […] ED50 values were estimated by the method of Litchfield and Wilcoxon.

[11] = CNS activity and toxicity in the comparative tests; details: during the anti-inflammatory assay
[12] = 12.5 mg/kg to 50 mg/kg subcutaneously

CC(C)=C[C@H]1C[C@H](C)[C@H]2CC[C@H](C)c3c(O[C@@H]4OC[C@@H](O)[C@H](O)[C@H]4O)c(O)c(C)c1c32 [Compound I, pseudopterosin A]
decrease in edema ([1]; 50 microgram): 69% | Ear Weight Mean ± S.E.M. ([1]; 6.25 ug/ear): 16.78 ± 0.91 mg | Ear Weight Mean ± S.E.M. ([1]; 12.5 ug/ear): 14.99 ± 0.6 mg | Ear Weight Mean ± S.E.M. ([1]; 25.0 ug/ear): 13.18 ± 0.53 mg | Ear Weight Mean ± S.E.M. ([1]; 50.0 ug/ear): 12.47 ± 0.46 mg | Ear Weight Mean ± S.E.M. ([1]; 100.0 ug/ear): 11.70 ± 0.37 mg | Anti-inflammatory Activity ([1]; summary): Active | Ear Weight Mean ± S.E.M. [2]: 13.33 ± 0.38 mg | Mean No. Responses ± S.E.M. ([3]; 3.1 mg/kg): 8.55 ± 1.38 | Mean No. Responses ± S.E.M. ([3]; 6.3 mg/kg): 5.87 ± 1.24 | Mean No. Responses ± S.E.M. ([3]; 12.5 mg/kg): 5.87 ± 0.77 | Mean No. Responses ± S.E.M. ([3]; 25.0 mg/kg): 1.80 ± 1.31 | Mean No. Responses ± S.E.M. ([3]; 50.0 mg/kg): 0 | analgesia against chemically induced pain ([3]; mouse, in vivo): provides analgesia | Analgesic Activity ([3]; summary): Active | dose that totally inhibits cell division [4]: 7 µM | dose at which signs of CNS toxicity were evident ([5]; single ip dose): greater than or equal to 77 mg/kg | Symptoms of CNS toxicity ([5]; single ip doses >= 77 mg/kg): hypersensitivity to external stimuli and shivering | lethality ([5]; single ip doses of up to 150 mg/kg): no lethality | Increase to Lifespan ([6]; 8.64 mg/kg ip): -2% | Median Survival Time ([6]; 8.64 mg/kg ip): 20.5 days | Weight Change on Day 9 ([6]; 8.64 mg/kg ip): +0.1 gm | Increase to Lifespan ([6]; 14.4 mg/kg ip): 0% | Median Survival Time ([6]; 14.4 mg/kg ip): 21 days | Weight Change on Day 9 ([6]; 14.4 mg/kg ip): +0.2 gm | Increase to Lifespan ([6]; 24 mg/kg ip): 0% | Median Survival Time ([6]; 24 mg/kg ip): 21 days | Weight Change on Day 9 ([6]; 24 mg/kg ip): +0.6 gm | Increase to Lifespan ([6]; 40 mg/kg ip): -2% | Median Survival Time ([6]; 40 mg/kg ip): 20.5 days | Weight Change on Day 9 ([6]; 40 mg/kg ip): -1.1 gm | Increase to Lifespan ([6]; 66.7 mg/kg ip): 2% | Median Survival Time ([6]; 66.7 mg/kg ip): 21.5 days | Weight Change on Day 9 ([6]; 66.7 mg/kg ip): -2.9 gm | antitumor activity ([6]; M5076 reticulum cell sarcoma): did not demonstrate significant antitumor activity | duration of side effects [7, 12]: last up to one hour | onset of side effects [7, 12]: within a few minutes of administration | side effects ([7]; 12.5 mg/kg to 50 mg/kg subcutaneously, sesame oil): central nervous system excitation, brief involuntary muscle contraction of the hind limbs resulting in lateral jumping movements, excessive preening of wound sites, and flushing of the tail and ears | side effects ([7]; doses as low as 3 mg/kg): slight to moderate central nervous system excitation | ED50 ([8]; 50% inhibition of writhing, n = 10 mice/dose): 4.22 mg/kg | % Inhibition (writhing) ([8]; 2.0 mg/kg): 29% | % Inhibition (writhing) ([8]; 3.5 mg/kg): 46% | % Inhibition (writhing) ([8]; 5.0 mg/kg): 38% | % Inhibition (writhing) ([8]; 7.5 mg/kg): 79% | % Inhibition (writhing) ([8]; 10 mg/kg): 73% | % Inhibition (writhing) ([8]; 20 mg/kg): 96% | % Inhibition (edema) ([9]; 6.25 mg/kg): 0% | % Inhibition (edema) ([9]; 12.5 mg/kg): 24.4% | % Inhibition (edema) ([9]; 25 mg/kg): 43.8% | % Inhibition (edema) ([9]; 50 mg/kg): 46.5% | % Inhibition (edema) ([9]; 100 mg/kg): 90.4% | % Inhibition (edema) ([10]; 6.25 ug/ear): 28.8% | % Inhibition (edema) ([10]; 12.5 ug/ear): 78.3% | % Inhibition (edema) ([10]; 25 ug/ear): 89.5% | % Inhibition (edema) ([10]; 50 ug/ear): 96.0% | ED50 ([10]; 50% inhibition of inflammation, n = 10 mice/dose): 8.3 ug/ear | CNS stimulation [11]: exhibited the CNS stimulation
